The source of these data is BindingDB's records for doi:10.1016/j.chembiol.2005.07.009 (University of Dundee, 2005).

Molecules are shown by their SMILES. pIC50, pKd: −log10 of the molar value.

Test [1] addresses cAMP-specific 3',5'-cyclic phosphodiesterase 4A (Homo sapiens, UniProt P27815). As to the kind of experiment: PDE 4A Assay. The conditions noted are these: pH 7.5; 30 °C. The method, then: Phosphodiesterase 4A (PDE4A) was assayed using an Sf9-expressed GST-fusion, and activity was monitored by hydrolysis of [3H]cAMP to [3H]AMP using the PDE-SPA kit from Amersham Pharmacia Biotech.

Test [2] addresses Endochitinase B1 [A217G] (Aspergillus fumigatus, UniProt Q873X9, A217G). In words: Enzyme Inhibition Assay.
The target of test [3] is Endochitinase B1 [D175A] (Aspergillus fumigatus, UniProt Q873X9, D175A). As to the kind of experiment: Enzyme Inhibition Assay.
The target of test [4] is Endochitinase B1 [D246A] (Aspergillus fumigatus, UniProt Q873X9, D246A). As to the kind of experiment: Enzyme Inhibition Assay.
Test [5] has as its target Endochitinase B1 [E177A] (Aspergillus fumigatus, UniProt Q873X9, E177A). As to the kind of experiment: Enzyme Inhibition Assay.
Test [6] concerns the target Endochitinase B1 [E322A] (Aspergillus fumigatus, UniProt Q873X9, E322A). In words: Enzyme Inhibition Assay.
Test [7] has as its target Endochitinase B1 [M243A] (Aspergillus fumigatus, UniProt Q873X9, M243A). As to the kind of experiment: Enzyme Inhibition Assay.
The target in test [8] is Endochitinase B1 [R301K] (Aspergillus fumigatus, UniProt Q873X9, R301K). In words: Enzyme Inhibition Assay.
The target in test [9] is Endochitinase B1 [T138A] (Aspergillus fumigatus, UniProt Q873X9, T138A). In words: Enzyme Inhibition Assay.
Test [10] concerns the target Endochitinase B1 [Y245F] (Aspergillus fumigatus, UniProt Q873X9, Y245F). In words: Enzyme Inhibition Assay.

The term pIC50 denotes the IC50 on a negative log10 scale, so that one unit is a factor of ten. As a reminder, the pKd is the negative decadic logarithm of the Kd, by convention in mol/L. A low value points to a large Kd.

Chain of cAMP-specific 3',5'-cyclic phosphodiesterase 4A (P27815 whole entry, the tested form may be a part): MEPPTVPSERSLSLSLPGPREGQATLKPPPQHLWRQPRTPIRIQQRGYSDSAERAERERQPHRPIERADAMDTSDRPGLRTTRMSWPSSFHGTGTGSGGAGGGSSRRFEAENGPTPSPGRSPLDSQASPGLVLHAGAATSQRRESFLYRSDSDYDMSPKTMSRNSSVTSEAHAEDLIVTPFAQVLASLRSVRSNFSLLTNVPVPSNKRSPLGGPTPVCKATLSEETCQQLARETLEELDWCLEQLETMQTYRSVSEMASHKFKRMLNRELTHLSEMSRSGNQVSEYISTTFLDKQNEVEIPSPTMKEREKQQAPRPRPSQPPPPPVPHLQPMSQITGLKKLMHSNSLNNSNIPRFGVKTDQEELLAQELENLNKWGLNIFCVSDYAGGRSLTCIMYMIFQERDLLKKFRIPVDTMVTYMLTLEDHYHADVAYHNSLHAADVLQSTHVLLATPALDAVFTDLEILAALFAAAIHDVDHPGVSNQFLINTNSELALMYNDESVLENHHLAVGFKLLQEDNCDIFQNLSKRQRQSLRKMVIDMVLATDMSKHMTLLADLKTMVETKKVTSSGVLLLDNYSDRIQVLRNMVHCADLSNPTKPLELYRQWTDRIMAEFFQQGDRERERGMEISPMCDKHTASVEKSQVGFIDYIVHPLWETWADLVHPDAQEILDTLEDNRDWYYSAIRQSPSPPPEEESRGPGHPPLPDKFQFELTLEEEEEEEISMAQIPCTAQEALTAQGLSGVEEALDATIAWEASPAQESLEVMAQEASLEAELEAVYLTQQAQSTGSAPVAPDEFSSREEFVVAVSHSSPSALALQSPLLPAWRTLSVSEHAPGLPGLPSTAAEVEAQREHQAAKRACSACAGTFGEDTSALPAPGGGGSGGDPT

As for `Cn1c(=O)c2c(ncn2C)n(C)c1=O`, the pIC50 in test [1] was 3.13.
As to `CC(=O)CCCCn1c(=O)c2c(ncn2C)n(C)c1=O` [1-(5-Oxohexyl)theobromine (pentoxifylline)], the pKd in test [2] was 4.11; in test [3], 4.00; in [4], 4.21; in [5] it was 4.44; in test [6], 4.35; in [7], 4.74. Moreover, the figures for the pKd in test [8], in test [9] and in [10] were 4.77, 4.19 and 4.19, respectively.
